Data published in patent publication US20230027066A1 (Urovant Sciences GmbH, priority 2019, published 2023).

Test system: men and women with overactive bladder
Assay: Phase 3 study of vibegron 75 mg vs placebo and tolterodine ER 4 mg, 12 weeks, efficacy (voiding and urine volume diary)
Type: in vivo, human
Details: for Urgency 50% responders, Active - Placebo CMH Difference / Patients with at Least 50% Reduction in Urgency Episodes, Adjusted (%) / Patients with at Least 50% Reduction in Urgency Episodes, Adjusted n / Patients with at Least 50% Reduction in Urgency Episodes, Unadjusted (%) / Patients with at Least 50% Reduction in Urgency Episodes, Unadjusted n: Dry population; for Urgency Episodes, Week 12 CFB Mean: descriptive statistics; for Micturitions: LS Mean (95% CI): Table 32, week 12
Description: Enrollment of patients included individuals with OAB Wet (those with UUI, the involuntary loss of urine accompanied by urgency) and OAB Dry (those without UUI). A total of 1,518 patients were randomized across 215 study sites into one of three groups for a 12-week treatment period.
The study consisted of a Screening Period (1 to 5 weeks), a single-blind Run-in Period (2 weeks), a randomized double-blind Treatment Period (12 weeks), and a Follow-up Period (4 weeks).
Tolterodine ER 4 mg was the active control. […] Between the Baseline and Week 12 Visits, patients had study assessments at Week 4 and Week 8.
The Patient Voiding Diary was used by participants (via the eDiary or paper Diary) to record the frequency of daily OAB symptoms including all micturitions, urgency, incontinence, and main reason for incontinence by selecting the respective box for each symptom occurring during the course of a given day and night.
Urine volume data were collected separately by patients using the Urine Volume component of the eDiary, or the paper Urine Volume Chart. The Urine Volume Chart is a tool used in clinical practice and clinical investigation to assess voiding functions over a 24-hour period and is regarded as a useful instrument in the investigation of patients with voiding symptoms. Urine volume may be collected during any one (1) of the 7 Diary Days prior to the visit, and it should be recorded for ˜24 hours starting from the time the patient gets up for the day and continues until the time the patient gets up for the day on the next day.
For the purpose of this study, the number of micturitions was defined as the number of times a patient has voided in the toilet as indicated on the Patient Voiding Diary. Average daily micturitions were calculated using the daily entries in the Patient Voiding Diary, which was completed over the 7 days prior to each study visit. Average daily number of micturitions were calculated as the total number of micturitions that occurred on a Complete Diary Day divided by the number of Complete Diary Days in the Patient Voiding Diary. A complete diary day required confirmation by the patient in the Patient Voiding Diary that all voids and leakages had been recorded for the diary day. Baseline was defined as the average number of micturitions occurring during the last evaluable diary prior to the Baseline Visit.
The number of UUI episodes was defined as the number of times a patient had checked “urge” as the reason for accidental urine leakage. Average daily UUI episodes at each study visit were calculated in the same manner as described above for the micturition endpoint. The UUI endpoint were analyzed using only OAB Wet patients.
For the analysis of the co-primary endpoints (change from baseline in average number of daily micturitions at Week 12 and change from baseline in average number of daily urge urinary incontinence episodes at Week 12, and placebo adjustment of each), a mixed model for repeated measure (MMRM) with restricted maximum likelihood estimation was used. This model corrects for dropout and accounts for the fact that measurements taken on the same patient over time tend to be correlated by using all available information on patients within the same covariate set to derive an estimate of the treatment effect for a dropout-free population. The analysis model for each efficacy endpoint includes terms for treatment, visit, OAB Type (Wet vs Dry), Sex (Female vs Male), Region (US vs Rest of World), baseline score, and interaction of visit by treatment.
Primary inferences were drawn from treatment differences for the changes from baseline derived from the MMRM models at Week 12. As part of secondary objectives, the treatment differences for each post baseline visit were also derived using the same MMRM model. […]

[1] = No prior anticholinergic use during the prior 12 months
[2] = No prior mirabegron use during the prior 12 months
[3] = Overall, events of Events/Censored
[4] = Prior anticholinergic use during the prior 12 months
[5] = Prior mirabegron use during the prior 12 months
[6] = Week 2, events of Events/Censored
[7] = Week 4, events of Events/Censored

`Cc1ccc(O)c([C@H](CCN(C(C)C)C(C)C)c2ccccc2)c1` [Tolterodine ER, tolterodine, reference compound] was tested, and the “Urgency 50% responders, Active - Placebo CMH Difference” value (baseline to Week 2) was 2.8, the “Patients with at Least 50% Reduction in Urgency Episodes, Adjusted (%)” value (baseline to Week 4) was 20.6% and the “Patients with at Least 50% Reduction in Urgency Episodes, Adjusted n” value (baseline to Week 4) was 20. For the same compound, the “Patients with at Least 50% Reduction in Urgency Episodes, Unadjusted (%)” value (baseline to Week 4) was 25.5%, the “Patients with at Least 50% Reduction in Urgency Episodes, Unadjusted n” value (baseline to Week 4) was 25 and the “Urgency 50% responders, Active - Placebo CMH Difference” value (baseline to Week 4) was 3.5. The “Patients with at Least 50% Reduction in Urgency Episodes, Adjusted (%)” value (baseline to Week 8) was 28.5%, the “Patients with at Least 50% Reduction in Urgency Episodes, Adjusted n” value (baseline to Week 8) was 28 and the “Patients with at Least 50% Reduction in Urgency Episodes, Unadjusted (%)” value (baseline to Week 8) was 30.6%. The “Patients with at Least 50% Reduction in Urgency Episodes, Unadjusted n” value (baseline to Week 8) was 30, the “Urgency 50% responders, Active - Placebo CMH Difference” value (baseline to Week 8) was 8.7 and the “Patients with at Least 50% Reduction in Urgency Episodes, Adjusted (%)” value (baseline to Week 12) was 29.0%. The “Patients with at Least 50% Reduction in Urgency Episodes, Adjusted n” value (baseline to Week 12) was 28, the “Patients with at Least 50% Reduction in Urgency Episodes, Unadjusted (%)” value (baseline to Week 12) was 32.7% and the “Patients with at Least 50% Reduction in Urgency Episodes, Unadjusted n” value (baseline to Week 12) was 32. The “Urgency 50% responders, Active - Placebo CMH Difference” value (baseline to Week 12) was 5.8, the “Urgency Episodes, Week 12 CFB Mean” value (Males with BPH) was −3.29 and the “Urgency Episodes, Week 12 CFB Mean” value (Males without BPH) was −2.32. For the same compound, the “Urgency Episodes, Week 12 CFB Mean” value (No Prior ACH Use in last 12 Mo.) was −2.62, the “Urgency Episodes, Week 12 CFB Mean” value (No Prior B3 Agonist Use in last 12 Mo.) was −2.56 and the “Micturitions, 12-week change” value [1] was −1.8. For the same compound, the “UUI Episodes, 12-week change” value [1] was −1.9, the “Micturitions, 12-week change” value [2] was −1.8 and the “UUI Episodes, 12-week change” value [2] was −1.8. The “Overall Time to First 50% Decrease in Urgency Episodes, 25th Percentile” value (Overall) was 4.3 weeks, the “Overall Time to First 50% Decrease in Urgency Episodes, 50th Percentile” value (Overall) was 12.6 weeks and the “Overall Time to First 50% Decrease in Urgency Episodes, Median (95% CI)” value (Overall) was 12.6 (12.3 to 12.9) weeks. The “Overall Time to First 100% Decrease in UUI Episodes, 25th Percentile” value (Overall) was 12.1 weeks, the “Overall Time to First 100% Decrease in UUI Episodes, 75th Percentile” value (Overall) was 16.0 weeks and the “Overall Time to First 100% Decrease in UUI Episodes, Median (95% CI)” value (Overall) was 13.1 (12.7 to 16.0) weeks. For the same compound, the “Urgency Episodes, Week 12 CFB Mean” value (Overall) was −2.57, the “First 50% Decrease in Urgency Episodes, Events” value [3] was 187/230 and the “First 100% Decrease in UUI Episodes, Events” value [3] was 93/226. For the same compound, the “Urgency Episodes, Week 12 CFB Mean” value (Prior ACH Use in last 12 Mo.) was −2.23, the “Urgency Episodes, Week 12 CFB Mean” value (Prior B3 Agonist Use in last 12 Mo.) was −2.72 and the “Micturitions, 12-week change” value [4] was −1.52. For the same compound, the “UUI Episodes, 12-week change” value [4] was −0.98, the “Micturitions, 12-week change” value [5] was −1.30 and the “UUI Episodes, 12-week change” value [5] was −0.65. The “Micturitions: LS Mean (95% CI)” value (Age <65 years) was −0.2 (−0.6 to 0.2), the “Micturitions: LS Mean (95% CI)” value (Age ≥65 years) was −0.3 (−0.8 to 0.2) and the “Micturitions: LS Mean (95% CI)” value (Age ≥75 years (posthoc analysis)) was −0.4 (−1.4 to 0.6). The “Micturitions: LS Mean (95% CI)” value (Females) was −0.3 (−0.7 to 0.0), the “Micturitions: LS Mean (95% CI)” value (Males) was 0.1 (−0.7 to 0.9) and the “Micturitions: LS Mean (95% CI)” value (Non-White) was −0.1 (−0.8 to 0.6). For the same compound, the “Micturitions: LS Mean (95% CI)” value (OAB Type: Dry) was −0.3 (−1.0 to 0.3), the “Micturitions: LS Mean (95% CI)” value (OAB Type: Wet) was −0.3 (−0.6 to 0.1) and the “Micturitions: LS Mean (95% CI)” value (Overall) was −0.3 (−0.6 to 0.1). The “Micturitions: LS Mean (95% CI)” value (Region: Non-US) was 0.4 (−0.6 to 1.4), the “Micturitions: LS Mean (95% CI)” value (Region: US) was −0.3 (−0.7 to 0.0) and the “Micturitions: LS Mean (95% CI)” value (White) was −0.3 (−0.7 to 0.0). The “Average Daily Number of Total Incontinence, Mean (SD)” value (Week 2) was 2.75 (2.743), the “Average daily number of urgency episodes, Mean (SD)” value (Week 2) was 6.30 (3.989) and the “Average volume voided per micturition, Active - Placebo LS Mean Difference” value (Week 2) was 10.2 mL. For the same compound, the “Change from Baseline in Average Daily Number of Total Incontinence, LS Mean (SE)” value (Week 2) was −1.3 (0.15), the “Change from baseline in average daily number of urgency episodes, LS Mean” value (Week 2) was −1.5 and the “Change from baseline in average volume voided per micturition, LS Mean (SE)” value (Week 2) was 12.5 (3.20) mL. For the same compound, the “Estimated Incidence of Subjects with 50% Decrease from Baseline (urgency episodes)” value (Week 2) was 18.0, the “Estimated Incidence of Subjects with 100% Decrease from Baseline (UUI episodes)” value (Week 2) was 5.6 and the “Total Incontinence, Active - Placebo LS Mean Difference (SE)” value (Week 2) was −0.5 (0.15). The “Urgency episodes, Active - Placebo LS Mean Difference” value (Week 2) was −0.6, the “First 50% Reduction in Urgency Episodes, Events” value [6] was 75/342 and the “First 100% Reduction in UUI Episodes, Events” value [6] was 18/301. For the same compound, the “Average volume voided per micturition, Week 2 Mean (SD)” value (Week 2, vibegron 75 mg, tolterodine ER 4 mg) was 156.7 (71.23) mL, the “Average Daily Number of Total Incontinence, Mean (SD)” value (Week 4) was 2.54 (2.784) and the “Average daily number of urgency episodes, Mean (SD)” value (Week 4) was 6.00 (4.097). For the same compound, the “Average volume voided per micturition, Active - Placebo LS Mean Difference” value (Week 4) was 8.9 mL, the “Average volume voided per micturition, Week 4 Mean (SD)” value (Week 4) was 160.2 (72.76) mL and the “Change from Baseline in Average Daily Number of Total Incontinence, LS Mean (SE)” value (Week 4) was −1.6 (0.15). For the same compound, the “Change from baseline in average daily number of urgency episodes, LS Mean” value (Week 4) was −1.8, the “Change from baseline in average volume voided per micturition, LS Mean (SE)” value (Week 4) was 13.3 (3.39) mL and the “Estimated Incidence of Subjects with 50% Decrease from Baseline (urgency episodes)” value (Week 4) was 19.4. For the same compound, the “Estimated Incidence of Subjects with 100% Decrease from Baseline (UUI episodes)” value (Week 4) was 7.6, the “Total Incontinence, Active - Placebo LS Mean Difference (SE)” value (Week 4) was −0.5 (0.15) and the “Urgency episodes, Active - Placebo LS Mean Difference” value (Week 4) was −0.7. For the same compound, the “First 50% Reduction in Urgency Episodes, Events” value [7] was 81/336, the “First 100% Reduction in UUI Episodes, Events” value [7] was 24/295 and the “Average Daily Number of Total Incontinence, Mean (SD)” value (Week 8) was 2.20 (2.673).
